The conditions of series [1]: in vivo; cited from earlier work.
The target of series [2] is Recombinant DPP-IV enzyme (Homo sapiens, UniProt P27487). The experiment in a line: DPP-IV enzyme resistance (GCGR bioactivity after DPP-IV treatment). In kind it is in vitro ADME. Conditions: 5 μM protein, 10 nM recombinant DPP-IV, 37° C., 24 hours; GCGR bioactivity after/before treatment. The protocol: The purified fusion protein was dissolved in 10 mM of HEPES buffer (containing 0.05 mg/ml BSA) to a final concentration of 5 μM. Recombinant DPP-IV enzyme (final concentration of 10 nM) was added and incubated at 37° C. for 24 hours before detection of GCGR bioactivity. Activity retention rate=(activity after DPP-IV enzyme treatment/activity before DPP-IV enzyme treatment)×100%.
Recombinant DPP-IV enzyme, sequence (P27487 whole entry, species assumed, the tested form may be a part): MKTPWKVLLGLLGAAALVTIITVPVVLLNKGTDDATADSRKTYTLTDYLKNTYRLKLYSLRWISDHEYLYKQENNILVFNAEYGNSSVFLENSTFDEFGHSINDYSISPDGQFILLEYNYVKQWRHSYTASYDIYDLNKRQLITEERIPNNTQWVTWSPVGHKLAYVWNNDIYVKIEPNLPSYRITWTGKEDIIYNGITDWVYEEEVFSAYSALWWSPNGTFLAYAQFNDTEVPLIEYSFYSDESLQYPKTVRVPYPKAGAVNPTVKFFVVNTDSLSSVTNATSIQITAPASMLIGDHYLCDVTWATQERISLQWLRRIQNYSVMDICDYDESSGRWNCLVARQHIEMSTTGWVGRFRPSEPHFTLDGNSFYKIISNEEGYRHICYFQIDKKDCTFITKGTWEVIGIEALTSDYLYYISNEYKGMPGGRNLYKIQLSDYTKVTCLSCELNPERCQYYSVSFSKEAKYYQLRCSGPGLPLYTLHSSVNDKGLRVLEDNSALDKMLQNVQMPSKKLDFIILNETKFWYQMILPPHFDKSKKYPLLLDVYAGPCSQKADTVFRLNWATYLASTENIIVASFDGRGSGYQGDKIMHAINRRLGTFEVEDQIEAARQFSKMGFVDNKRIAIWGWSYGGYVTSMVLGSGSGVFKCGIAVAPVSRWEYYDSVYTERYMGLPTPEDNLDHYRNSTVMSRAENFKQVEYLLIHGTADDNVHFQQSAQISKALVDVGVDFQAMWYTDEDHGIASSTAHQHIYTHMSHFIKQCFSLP

No end group written: not given here.

With Taspoglutide, the “Anti-drug antibody positive rate” value in series [1] is 49%.
Consider “H-D-Ser-QGTFTSDYSKYLDSQAAQDFVQWLMNGGPSSGAPPPS (not fully specified (N-terminus)) [GDSerGS, control]”, for which the “Activity preservation rate (%)” value in series [2] is given as 99.2%.

These data come from patent US20220340635A1, “FUSION PROTEIN FOR TREATMENT OF METABOLIC DISEASE” (ZHEJIANG DOER BIOLOGICS CORPORATION, priority 2019, published 2022).
